Reference: patent publication US7507806B2, “Nucleic acid sequences of human Rif1” (The Rockefeller University, priority 2004, dated 2009)

What was measured:
Type in all cases: cell-based, human
Rif1 foci [1] = assay: Rif1 foci after drug treatment, immunofluorescence; details: MMS 0.01% w/v, etoposide 50 μg/ml, 1 hr; hydroxyurea prolonged incubation
Experimental: (§1) For IR treatment, cells were exposed to gamma(λ)-irradiation using a Cs^137 source at a rate of 7.7 Gray/min in 6 cm dishes. For UV radiation, cells were washed with PBS and exposed to 25 J/m^2 UV (265 nm) radiation in a Stratalinker (Stratagene) without a lid. After UV radiation, cells were incubated in media until harvest. For immunoblotting as described in FIG. 2B, cells were harvested 1 hr post-UV. MMS and etoposide (0.01% w/v and 50 μg/ml, respectively) were added to the media and cells were incubated for 1 hr before harvesting.
To stain cells for immunofluorescence, tissue culture cells plated on dishes with coverslips were washed twice with PBS, fixed with 2% paraformaldehyde in PBS (stored at −20° C.) for 10 minutes at room temperature (RT), washed twice with PBS and permeabilized with 0.5% NP-40 in PBS for 10 minutes at RT and washed three times with PBS. Cells were processed immediately or stored at 4° C. wrapped in PBS with sodium azide. Coverslips were placed on parafilm in a humidified tray and blocked with PBG (0.2% (w/v) cold water fish gelatin (Sigma), 0.5% (w/v) BSA (Sigma) in PBS (stored at −20° C.) for 30 minutes at RT. Cells were then incubated with primary antibody diluted in PBG for 3 hours at RT, washed three times with PBG for 5 minutes at RT, incubated with secondary antibody diluted 1:100 in PBG for 40 minutes at RT, washed three times with PBG for 5 minutes at RT (with the last wash containing DAPI ([…]). Coverslips were then washed twice with PBS and mounted on glass slides in mounting media and sealed with nail polish.

53BP1 foci = 53BP1 foci by indirect immunofluorescence after IR or UV; details: aphidicolin after the UV irradiation
Experimental: as §1
(§2) To stain cells for immunofluorescence, tissue culture cells plated on dishes with coverslips were washed twice with PBS, fixed with 2% paraformaldehyde in PBS (stored at −20° C.) for 10 minutes at room temperature (RT), washed twice with PBS and permeabilized with 0.5% NP-40 in PBS for 10 minutes at RT and washed three times with PBS. Cells were processed immediately or stored at 4° C. wrapped in PBS with sodium azide. […]

Rif1 foci [2] = assay: UV-induced Rif1 foci by indirect immunofluorescence; details: aphidicolin after the UV irradiation
Experimental: as §1, §2

SMILES | Rif1 foci formation after treatment (Rif1 foci [1]) | 53BP1 foci after UV (53BP1 foci) | Rif1 foci after UV (Rif1 foci [2])
COS(C)(=O)=O [MMS] | forms foci | – | –
COc1cc([C@@H]2c3cc4c(cc3[C@@H](O[C@@H]3O[C@@H]5CO[C@@H](C)O[C@H]5[C@H](O)[C@H]3O)[C@H]3COC(=O)[C@H]23)OCO4)cc(OC)c1O [etoposide] | forms foci | – | –
NC(=O)NO [hydroxyurea] | forms foci | – | –
C[C@@]1(CO)[C@H](O)CC[C@@]2(C)[C@H]1CC[C@H]1C[C@@H]3C[C@@]12CC[C@]3(O)CO [Aphidicolin] | – | still detectable | fail to form Rif1 foci after UV
